Source: ChEMBL document CHEMBL4041503, “A Hexacyclic, Iboga-Derived Monoterpenoid Indole with a Contracted Tetrahydroazepine C-Ring and Incorporation of an Isoxazolidine Moiety, a Seco-Corynanthean, an Aspidosperma-Aspidosperma Bisindole with Anticancer Properties, and the Absolute Configuration of the Pyridopyrimidine Indole Alkaloid, …” (J Nat Prod, 2016)

Assays:
Assay type in all cases: functional, cell-based
[1] = Cytotoxicity against human KB/S cells assessed as reduction in cell viability after 72 hrs by MTT assay
KB/VJ300 = assay: Cytotoxicity against human KB/VJ300 cells assessed as reduction in cell viability after 72 hrs by MTT assay; settings: KB/VJ300, 72 h
PC-3 = assay: Cytotoxicity against human PC3 cells assessed as reduction in cell viability after 72 hrs by MTT assay; settings: PC-3, 72 h
LNCaP = assay: Cytotoxicity against human LNCAP cells assessed as reduction in cell viability after 72 hrs by MTT assay
MCF7 = assay: Cytotoxicity against human MCF7 cells assessed as reduction in cell viability after 72 hrs by MTT assay; settings: MCF7, 72 h
MDA-MB-231 = assay: Cytotoxicity against human MDA-MB-231 cells assessed as reduction in cell viability after 72 hrs by MTT assay; settings: MDA-MB-231, 72 h
HT-29 = assay: Cytotoxicity against human HT-29 cells assessed as reduction in cell viability after 72 hrs by MTT assay; settings: HT-29, 72 h
HCT-116 = assay: Cytotoxicity against human HCT116 cells assessed as reduction in cell viability after 72 hrs by MTT assay; settings: HCT-116, 72 h
A549 = assay: Cytotoxicity against human A549 cells assessed as reduction in cell viability after 72 hrs by MTT assay; settings: A549, 72 h

SMILES	IC50 [1] [nM]	IC50 (KB/VJ300) [nM]	IC50 (PC-3) [nM]	IC50 (LNCaP) [nM]	IC50 (MCF7) [nM]	IC50 (MDA-MB-231) [nM]	IC50 (HT-29) [nM]	IC50 (HCT-116) [nM]	IC50 (A549) [nM]
CC[C@]12C=CCN3CC[C@]4(C(=C(C(=O)OC)C1)Nc1cc5c(cc14)[C@@H]1[C@H](O5)[C@@H](O)[C@@]4(CC)CC(C(=O)OC)=C5Nc6c(cc(O)c(OC)c6OC)[C@@]56CCN1[C@@H]46)[C@@H]32	1500	> 10000	200	900	600	900	1100	800	10000
CC[C@@]12CC(C(=O)OC)=C3Nc4c(cc(O)c(OC)c4OC)[C@@]34CCN([C@@H]3c5cc6c(cc5O[C@@H]3[C@H]1O)NC1=C(C(=O)OC)C[C@]35CCO[C@H]3CCN3CC[C@@]16[C@@H]35)[C@@H]24	500	7400	1100	300	5900	800	300	400	> 10000
CC[C@]1(O)C[C@H]2CN(CCc3c([nH]c4ccccc34)[C@@](C(=O)OC)(c3cc4c(cc3OC)N(C=O)[C@H]3[C@@](O)(C(=O)OC)[C@H](OC(C)=O)[C@]5(CC)C=CCN6CC[C@]43[C@@H]65)C2)C1 [VINCRISTINE]	2	5900	–	–	–	–	–	–	–
